From PMC5007443, “TNIK inhibition abrogates colorectal cancer stemness” (Nature Communications, 2016)

Key:
CSK = CSK (Homo sapiens, UniProt P41240); test: Kinase selectivity profiling, c-Src tyrosine kinase; assay type: biochemical; conditions: read-out: Percentage inhibition of CSK
Experimental: (§1) The selectivity of compounds against a panel of 50 human protein kinases was assessed using a non-radiometric assay.

EGFR = EGFR (Homo sapiens, UniProt P00533); test: Kinase selectivity profiling, Epidermal growth factor receptor; assay type: biochemical; conditions: read-out: Percentage inhibition of EGFR
Experimental: as §1

EPHA2 = EPHA2 (Homo sapiens, UniProt P29317); test: Kinase selectivity profiling, EPH receptor A2; assay type: biochemical; conditions: read-out: Percentage inhibition of EPHA2
Sequence of EPHA2 (P29317 24-976): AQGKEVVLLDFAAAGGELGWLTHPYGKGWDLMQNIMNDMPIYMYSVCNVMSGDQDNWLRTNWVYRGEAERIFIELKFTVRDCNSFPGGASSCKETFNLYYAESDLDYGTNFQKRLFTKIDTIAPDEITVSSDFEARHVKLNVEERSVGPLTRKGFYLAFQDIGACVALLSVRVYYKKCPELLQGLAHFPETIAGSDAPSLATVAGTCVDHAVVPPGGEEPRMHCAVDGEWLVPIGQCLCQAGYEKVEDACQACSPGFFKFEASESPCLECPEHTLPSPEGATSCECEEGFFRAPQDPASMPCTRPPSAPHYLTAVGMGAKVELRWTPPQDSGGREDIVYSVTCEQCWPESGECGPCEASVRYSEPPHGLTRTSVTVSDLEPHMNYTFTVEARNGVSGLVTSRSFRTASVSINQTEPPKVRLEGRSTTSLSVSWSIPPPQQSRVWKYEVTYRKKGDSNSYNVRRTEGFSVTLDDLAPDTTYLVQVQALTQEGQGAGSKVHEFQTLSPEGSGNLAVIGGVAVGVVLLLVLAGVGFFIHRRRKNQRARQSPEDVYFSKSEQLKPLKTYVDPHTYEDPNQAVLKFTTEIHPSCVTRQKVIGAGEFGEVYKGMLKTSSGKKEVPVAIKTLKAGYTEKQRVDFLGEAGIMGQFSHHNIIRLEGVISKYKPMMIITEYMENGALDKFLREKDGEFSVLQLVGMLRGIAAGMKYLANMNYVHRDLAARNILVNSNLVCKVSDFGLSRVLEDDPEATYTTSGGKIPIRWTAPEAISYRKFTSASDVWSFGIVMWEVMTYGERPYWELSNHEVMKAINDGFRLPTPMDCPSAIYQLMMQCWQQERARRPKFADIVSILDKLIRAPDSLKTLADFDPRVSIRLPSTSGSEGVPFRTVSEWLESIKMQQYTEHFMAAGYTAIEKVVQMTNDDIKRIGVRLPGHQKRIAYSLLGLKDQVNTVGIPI
Experimental: as §1

JAK3 = target: T1, JAK3 (Homo sapiens, UniProt P52333); test: Kinase selectivity profiling, Janus kinase 3; assay type: biochemical; conditions: 0.1 µM inhibitor, ATP at Km; for inhibition at 0.1 µM: read-out: Percentage inhibition of JAK3
T1 sequence (P52333 1-1124): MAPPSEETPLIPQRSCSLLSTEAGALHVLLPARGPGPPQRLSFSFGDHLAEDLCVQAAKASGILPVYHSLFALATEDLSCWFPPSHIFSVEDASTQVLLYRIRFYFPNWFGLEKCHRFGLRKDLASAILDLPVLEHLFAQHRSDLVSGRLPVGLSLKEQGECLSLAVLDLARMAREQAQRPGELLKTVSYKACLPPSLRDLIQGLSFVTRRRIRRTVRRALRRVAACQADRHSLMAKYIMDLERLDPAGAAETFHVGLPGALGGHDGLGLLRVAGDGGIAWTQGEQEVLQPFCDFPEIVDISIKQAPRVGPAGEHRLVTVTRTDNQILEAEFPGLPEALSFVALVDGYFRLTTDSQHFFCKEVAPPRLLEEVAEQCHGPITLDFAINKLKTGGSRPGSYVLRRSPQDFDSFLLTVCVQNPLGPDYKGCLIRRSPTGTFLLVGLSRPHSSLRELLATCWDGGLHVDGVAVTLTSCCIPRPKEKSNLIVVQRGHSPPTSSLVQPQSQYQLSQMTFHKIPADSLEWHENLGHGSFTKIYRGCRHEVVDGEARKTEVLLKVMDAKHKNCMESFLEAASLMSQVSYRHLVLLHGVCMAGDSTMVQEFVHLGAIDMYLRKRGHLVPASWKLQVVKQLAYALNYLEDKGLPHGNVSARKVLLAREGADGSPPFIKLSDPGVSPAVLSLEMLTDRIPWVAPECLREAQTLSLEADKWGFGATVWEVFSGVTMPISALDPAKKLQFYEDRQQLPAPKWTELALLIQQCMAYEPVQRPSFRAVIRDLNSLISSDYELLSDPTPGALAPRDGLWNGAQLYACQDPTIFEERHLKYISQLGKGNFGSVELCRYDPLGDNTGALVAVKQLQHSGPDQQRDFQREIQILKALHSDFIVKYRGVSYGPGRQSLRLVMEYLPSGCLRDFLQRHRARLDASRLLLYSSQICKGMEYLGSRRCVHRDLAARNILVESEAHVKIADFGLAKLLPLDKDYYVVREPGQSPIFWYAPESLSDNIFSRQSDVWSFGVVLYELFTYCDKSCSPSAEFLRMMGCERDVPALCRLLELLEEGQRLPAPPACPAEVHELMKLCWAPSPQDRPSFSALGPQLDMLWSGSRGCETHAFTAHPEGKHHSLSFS
Experimental: as §1

KDR = KDR (Homo sapiens, UniProt P35968); test: Kinase selectivity profiling, Kinase insert domain receptor; assay type: biochemical; conditions: read-out: Percentage inhibition of KDR
Experimental: as §1

MET = MET (Homo sapiens, UniProt P08581); test: Kinase selectivity profiling, Hepatocyte growth factor receptor; assay type: biochemical; conditions: read-out: Percentage inhibition of MET
Experimental: as §1

TIE2 = TIE2 (Homo sapiens, UniProt Q02763); test: Kinase selectivity profiling, TEK tyrosine kinase; assay type: biochemical; conditions: read-out: Percentage inhibition of TIE2
Sequence of TIE2 (Q02763 23-1124): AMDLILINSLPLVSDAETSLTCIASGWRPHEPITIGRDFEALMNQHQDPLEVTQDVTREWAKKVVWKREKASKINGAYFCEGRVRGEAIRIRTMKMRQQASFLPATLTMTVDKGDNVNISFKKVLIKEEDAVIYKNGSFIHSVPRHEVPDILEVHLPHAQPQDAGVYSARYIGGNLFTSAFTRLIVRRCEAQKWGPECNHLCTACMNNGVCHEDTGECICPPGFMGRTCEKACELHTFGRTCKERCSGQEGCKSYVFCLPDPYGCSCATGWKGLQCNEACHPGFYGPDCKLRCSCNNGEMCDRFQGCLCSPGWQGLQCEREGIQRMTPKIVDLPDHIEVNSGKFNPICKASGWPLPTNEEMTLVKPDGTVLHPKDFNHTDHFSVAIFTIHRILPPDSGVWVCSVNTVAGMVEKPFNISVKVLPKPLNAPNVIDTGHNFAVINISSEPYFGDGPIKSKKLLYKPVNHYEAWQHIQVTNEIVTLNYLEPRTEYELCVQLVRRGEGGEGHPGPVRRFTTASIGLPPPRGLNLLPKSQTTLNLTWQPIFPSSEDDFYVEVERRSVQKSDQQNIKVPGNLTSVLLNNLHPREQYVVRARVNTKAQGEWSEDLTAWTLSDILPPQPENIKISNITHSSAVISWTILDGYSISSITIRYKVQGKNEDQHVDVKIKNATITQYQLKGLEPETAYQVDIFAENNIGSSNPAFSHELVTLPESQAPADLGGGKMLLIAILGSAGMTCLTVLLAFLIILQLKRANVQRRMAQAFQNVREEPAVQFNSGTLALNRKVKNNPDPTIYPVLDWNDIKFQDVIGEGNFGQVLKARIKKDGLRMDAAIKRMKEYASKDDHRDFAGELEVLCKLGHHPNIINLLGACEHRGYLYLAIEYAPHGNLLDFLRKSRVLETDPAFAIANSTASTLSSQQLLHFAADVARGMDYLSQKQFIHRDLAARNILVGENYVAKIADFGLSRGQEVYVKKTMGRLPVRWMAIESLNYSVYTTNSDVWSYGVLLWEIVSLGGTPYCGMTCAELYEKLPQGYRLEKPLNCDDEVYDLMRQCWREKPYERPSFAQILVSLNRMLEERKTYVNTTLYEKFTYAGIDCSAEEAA
Experimental: as §1

AKT1 = AKT1 (Homo sapiens, UniProt P31749); test: Kinase selectivity profiling, v-Akt murine thymoma viral oncogene homolog 1; assay type: biochemical; conditions: read-out: Percentage inhibition of AKT1
Sequence of AKT1 (P31749 whole entry): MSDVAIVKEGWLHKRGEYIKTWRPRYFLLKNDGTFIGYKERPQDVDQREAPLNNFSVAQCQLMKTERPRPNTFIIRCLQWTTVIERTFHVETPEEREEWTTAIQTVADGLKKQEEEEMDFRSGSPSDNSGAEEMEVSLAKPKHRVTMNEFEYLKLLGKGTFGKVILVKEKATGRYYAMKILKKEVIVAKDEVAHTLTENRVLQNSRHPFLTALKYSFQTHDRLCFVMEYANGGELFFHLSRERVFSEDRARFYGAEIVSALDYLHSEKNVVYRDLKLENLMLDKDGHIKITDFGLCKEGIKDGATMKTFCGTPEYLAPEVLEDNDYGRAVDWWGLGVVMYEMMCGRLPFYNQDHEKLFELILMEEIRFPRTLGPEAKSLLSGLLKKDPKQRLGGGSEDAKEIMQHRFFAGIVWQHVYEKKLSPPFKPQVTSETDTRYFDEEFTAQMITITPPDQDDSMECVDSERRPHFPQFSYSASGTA
Experimental: as §1

CK1ε = CK1ε (Homo sapiens, UniProt P49674); test: Kinase selectivity profiling, Casein kinase 1ε; assay type: biochemical; conditions: read-out: Percentage inhibition of CK1ε
Experimental: as §1

Erk2 = Erk2 (Homo sapiens, UniProt P28482); test: Kinase selectivity profiling, Mitogen-activated protein kinase 1; assay type: biochemical; conditions: read-out: Percentage inhibition of Erk2
Sequence of Erk2 (P28482 whole entry): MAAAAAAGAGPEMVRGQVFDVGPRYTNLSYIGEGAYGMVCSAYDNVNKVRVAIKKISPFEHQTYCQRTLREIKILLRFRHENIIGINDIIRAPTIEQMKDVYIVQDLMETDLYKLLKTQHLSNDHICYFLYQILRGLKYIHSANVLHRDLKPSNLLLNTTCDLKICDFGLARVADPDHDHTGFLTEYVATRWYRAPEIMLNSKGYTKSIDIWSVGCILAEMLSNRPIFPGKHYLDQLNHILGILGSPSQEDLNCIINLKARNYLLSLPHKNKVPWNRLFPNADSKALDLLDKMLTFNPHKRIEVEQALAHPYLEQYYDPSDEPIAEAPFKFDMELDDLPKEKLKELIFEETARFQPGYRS
Experimental: as §1

GSK3β = GSK3β (Homo sapiens, UniProt P49841); test: Kinase selectivity profiling, Glycogen synthase kinase 3β; assay type: biochemical; conditions: read-out: Percentage inhibition of GSK3β
Sequence of GSK3β (P49841 whole entry): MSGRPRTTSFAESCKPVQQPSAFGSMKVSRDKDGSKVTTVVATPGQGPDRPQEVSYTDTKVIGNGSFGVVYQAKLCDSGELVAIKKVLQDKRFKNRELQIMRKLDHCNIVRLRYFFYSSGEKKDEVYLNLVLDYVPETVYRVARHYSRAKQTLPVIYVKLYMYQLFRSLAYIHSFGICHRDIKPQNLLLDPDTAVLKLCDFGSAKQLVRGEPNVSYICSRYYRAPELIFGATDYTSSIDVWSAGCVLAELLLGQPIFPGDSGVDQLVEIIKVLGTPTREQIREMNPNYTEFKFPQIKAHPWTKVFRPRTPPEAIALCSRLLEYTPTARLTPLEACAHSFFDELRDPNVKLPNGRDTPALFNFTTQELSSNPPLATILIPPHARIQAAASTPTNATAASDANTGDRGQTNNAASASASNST
Experimental: as §1

IKKβ = IKKβ (Homo sapiens, UniProt O14920); test: Kinase selectivity profiling, I-kappa-B kinase-β; assay type: biochemical; conditions: read-out: Percentage inhibition of IKKβ
Sequence of IKKβ (O14920 whole entry): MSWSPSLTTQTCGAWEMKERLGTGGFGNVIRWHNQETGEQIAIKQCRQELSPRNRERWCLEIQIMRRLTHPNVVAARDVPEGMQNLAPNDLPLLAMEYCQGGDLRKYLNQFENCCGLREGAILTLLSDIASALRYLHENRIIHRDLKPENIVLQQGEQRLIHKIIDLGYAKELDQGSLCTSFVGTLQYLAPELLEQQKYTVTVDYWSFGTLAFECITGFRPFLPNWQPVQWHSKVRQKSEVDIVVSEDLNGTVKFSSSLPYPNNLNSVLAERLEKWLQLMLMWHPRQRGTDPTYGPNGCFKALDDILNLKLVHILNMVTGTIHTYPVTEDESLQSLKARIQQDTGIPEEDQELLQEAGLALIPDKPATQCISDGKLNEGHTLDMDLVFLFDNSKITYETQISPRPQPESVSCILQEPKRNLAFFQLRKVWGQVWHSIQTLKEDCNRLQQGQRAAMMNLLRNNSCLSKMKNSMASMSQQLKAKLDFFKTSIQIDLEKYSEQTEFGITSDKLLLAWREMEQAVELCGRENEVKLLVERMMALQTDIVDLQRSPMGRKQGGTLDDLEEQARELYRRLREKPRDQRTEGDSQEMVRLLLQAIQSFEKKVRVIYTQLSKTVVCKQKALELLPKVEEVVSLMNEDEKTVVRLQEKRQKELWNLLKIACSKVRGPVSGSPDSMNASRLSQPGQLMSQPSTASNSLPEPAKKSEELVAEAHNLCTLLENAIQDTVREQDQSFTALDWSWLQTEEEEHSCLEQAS
Experimental: as §1

NEK2 = NEK2 (Homo sapiens, UniProt P51955); test: Kinase selectivity profiling, Never in mitosis gene A-related kinase 2; assay type: biochemical; conditions: read-out: Percentage inhibition of NEK2
Sequence of NEK2 (P51955 whole entry): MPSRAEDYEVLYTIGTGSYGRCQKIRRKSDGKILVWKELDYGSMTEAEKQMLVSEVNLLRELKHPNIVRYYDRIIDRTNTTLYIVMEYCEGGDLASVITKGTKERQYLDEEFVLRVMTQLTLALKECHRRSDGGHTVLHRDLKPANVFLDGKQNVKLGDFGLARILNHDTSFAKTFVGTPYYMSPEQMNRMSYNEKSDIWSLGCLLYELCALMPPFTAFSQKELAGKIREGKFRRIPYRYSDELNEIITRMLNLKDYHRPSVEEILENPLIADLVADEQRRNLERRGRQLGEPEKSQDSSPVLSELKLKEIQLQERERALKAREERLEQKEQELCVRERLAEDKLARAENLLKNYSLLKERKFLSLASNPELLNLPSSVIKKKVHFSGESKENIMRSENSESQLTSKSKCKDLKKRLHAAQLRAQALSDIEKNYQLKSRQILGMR
Experimental: as §1

PAK2 = PAK2 (Homo sapiens, UniProt Q13177); test: Kinase selectivity profiling, P21 protein (Cdc42/Rac)-activated kinase 2; assay type: biochemical; conditions: read-out: Percentage inhibition of PAK2
Experimental: as §1

ROCK1 = ROCK1 (Homo sapiens, UniProt Q13464); test: Kinase selectivity profiling, Rho-associated, coiled-coil containing protein kinase 1; assay type: biochemical; conditions: read-out: Percentage inhibition of ROCK1
Experimental: as §1

TSSK1 = TSSK1 (Homo sapiens, UniProt Q9BXA7); test: Kinase selectivity profiling, Testis-specific serine kinase 1; assay type: biochemical; conditions: read-out: Percentage inhibition of TSSK1
Sequence of TSSK1 (Q9BXA7 whole entry): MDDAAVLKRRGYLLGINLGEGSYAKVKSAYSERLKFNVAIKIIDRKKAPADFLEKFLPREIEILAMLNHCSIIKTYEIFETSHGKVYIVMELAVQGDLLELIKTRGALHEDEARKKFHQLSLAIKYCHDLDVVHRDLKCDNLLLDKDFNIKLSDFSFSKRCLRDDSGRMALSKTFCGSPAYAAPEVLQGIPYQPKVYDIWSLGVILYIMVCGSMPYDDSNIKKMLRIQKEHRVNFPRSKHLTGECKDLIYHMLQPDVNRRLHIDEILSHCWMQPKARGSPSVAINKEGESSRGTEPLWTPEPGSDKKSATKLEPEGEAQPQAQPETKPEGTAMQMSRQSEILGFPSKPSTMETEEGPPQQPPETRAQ
Experimental: as §1

HCT116 cells = test: Soft-agar colony-formation assay; assay type: cell-based; conditions: Homo sapiens, HCT-116, 336 h; HCT116, 14 days
Experimental: One milliliter of 0.33% agar (Lonza) in culture medium containing 1.5 × 10^4 cells was plated onto 1 ml of solidified base agar (0.5%) in each well of six-well clusters. The top agar layer was covered with culture medium containing serially diluted compounds. The medium was replaced every three days. Cell number was determined colorimetrically at 450–650 nm using the Cell Count Reagent SF (Nacalai Tesque). IC50 values were obtained by fitting a four-parameter dose–response curve to normalized data using GraphPad Prism version 5 (GraphPad software; Fig. 3b). Experiments were performed in triplicate and repeated at least two times.

[1] = system: patient-derived colorectal cancer spheroids #6; test: ATP production of patient-derived spheroid #6; assay type: cell-based; conditions: Homo sapiens, 72 h; spheroid #6, 3 days
Experimental: Cells were seeded at a density of 3,000 cells per well in 96-well plates. Twenty-four hours after seeding, the cells were exposed to serially diluted compounds (0.003, 0.01, 0.03, 0.1, 0.3, 1, 3 and 10 μM) and incubated for 72 h (Fig. 3a). Patient-derived colorectal cancer spheroids were dissociated into single cells with Accutase (Nacalai Tesque) and seeded at a density of 3,000 cells per well into Ultra-Low attachment multiwall 96-well plates (Corning; Fig. 6d). ATP was measured with a CellTiter-Glo Luminescent Cell Viability Assay kit (Promega). Experiments were performed in triplicate and repeated at least two times.

## O[C@H]1CC[C@@H](Oc2cccc3cnc(Nc4ccc5nc[nH]c5c4)nc23)CC1 [NCB-0846, cis-4-(2-(3H-benzo[d]imidazol-5-ylamino)quinazolin-8-yloxy)cyclohexanol]
CSK
  inhibition at 0.1 µM: -1%
EGFR
  inhibition at 0.1 µM: 4.8%
EPHA2
  inhibition at 0.1 µM: 13.6%
JAK3; 0.1 µM
  Percentage inhibition of JAK3: 96.3%
JAK3
  inhibition at 0.1 µM: > 80%
KDR
  inhibition at 0.1 µM: 71.1%
MET
  inhibition at 0.1 µM: 42.1%
TIE2
  inhibition at 0.1 µM: 4.9%
AKT1
  inhibition at 0.1 µM: -3.4%
CK1ε
  inhibition at 0.1 µM: -2.8%
Erk2
  inhibition at 0.1 µM: 0.7%
GSK3β
  inhibition at 0.1 µM: 27.7%
IKKβ
  inhibition at 0.1 µM: 6.8%
NEK2
  inhibition at 0.1 µM: -3.5%
PAK2
  inhibition at 0.1 µM: -7.8%
ROCK1
  inhibition at 0.1 µM: 20.1%
TSSK1
  inhibition at 0.1 µM: 5.8%
HCT116 cells
  IC50: 190 nM
[1]
  IC50: 680 nM

## O[C@H]1CC[C@H](Oc2cccc3cnc(Nc4ccc5nc[nH]c5c4)nc23)CC1 [NCB-0970]
CSK
  inhibition at 0.1 µM: -4%
EGFR
  inhibition at 0.1 µM: -16.8%
EPHA2
  inhibition at 0.1 µM: 8.7%
JAK3
  inhibition at 0.1 µM: 85.4%
KDR
  inhibition at 0.1 µM: 43.7%
MET
  inhibition at 0.1 µM: 16.1%
TIE2
  inhibition at 0.1 µM: -2.8%
AKT1
  inhibition at 0.1 µM: -4.4%
CK1ε
  inhibition at 0.1 µM: -1.6%
Erk2
  inhibition at 0.1 µM: -2.1%
GSK3β
  inhibition at 0.1 µM: 13.5%
IKKβ
  inhibition at 0.1 µM: 7.9%
NEK2
  inhibition at 0.1 µM: -4.5%
PAK2
  inhibition at 0.1 µM: -17.4%
ROCK1
  inhibition at 0.1 µM: 9.7%
TSSK1
  inhibition at 0.1 µM: 1.1%
HCT116 cells
  IC50: 3850 nM
[1]
  IC50: > 3000 nM
